# According to patent publication US20260000694A1, “METHODS AND COMPOSITIONS RELATED TO PREBIOTIC FORMULATIONS USEFUL IN PROMOTING UROGENITAL HEALTH” (KIMBERLY-CLARK WORLDWIDE, INC., priority 2022, published 2026):
# Where “and” joins values, the source holds several entries; their conditions need not be identical. Equal entries are not always repeated.
# Tested on: Lactobacillus crispatus KC18-1173-1
# Test: Competition (co-culture) assay: recovery of L. crispatus after exposure to prebiotics
# Assay type: cell-based
# Settings: change vs start, background growth in media without prebiotic subtracted; co-culture, 48 hours; one value per replicate
# Experimental: (§1) The methods used herein were adapted from Vongsa et al. The method used in this particular example is as follows: • 1. A stock was created using a single prebiotic, a prebiotic mixture, or the positive control (glucose) in API 50 CHL media (Biomerieux, Marcy-l'Étoile, France). API 50 CHL media containing minimal amounts of carbon for growth and bromocresol purple as a pH indicator of fermentation. The stock media was filter-sterilized with a 0.22 μM filter and store at 4-6° C. • 2. From a freezer stock, the bacteria were subcultured twice into De Man, Rogosa, and Sharpe (MRS) broth (BD Difco, Becton Dickinson, Franklin Lakes, NJ) and incubated at 37° C. anaerobically overnight until stationary. • 3. The second MRS broth subculture was plated onto an MRS agar plate for Lactobacillus crispatus KC18-1173-1 or blood agar for Streptococcus anginosus KC18-1131-3B and incubated at 37° C. anaerobically overnight until stationary. • 4. A bacterial suspension was created for each bacterium using a sterile tipped swab to transfer colonies into API suspension media (Biomerieux, Marcy-l'Étoile, France) to reach the turbidity of a 2 MacFarland standard. • 5. The starting culture was enumerated. • 6. 9.8 mL of the prebiotic media was added into a sterile 15 mL conical tube. • 7. 100 μL of each prepared bacterial suspension was added to the media, and it was incubated anaerobically at 37° C. for 48 hours. • 8. 100 μL were harvested from each tube containing the bacteria and prebiotic media, it was serially diluted, and plated onto MRS agar and tryptic soy agar (TSA). • 9. The bacteria were enumerated on MRS agar (both L. crispatus and S. anginosus). Small colonies were counted as S. anginosus, and large colonies were counted as L. crispatus. • 10. S. anginosus was enumerated on TSA plates. […] Background growth of bacteria in the negative control (CHL media without prebiotics) was subtracted from the growth recovered in the presence of the prebiotic mixture. • 12. Statistical analysis was performed using Student's t-test. The significance level was set at p<0.05.
row,SMILES,L. crispatus Δ on MRS
1,"CO[C@H]1O[C@H](CO)[C@@H](O)[C@H](O)[C@H]1O [α-Methyl-D-Glucoside (2.0), α-Methyl-D-Glucoside]",1.90 Log CFU/mL and 1.39 Log CFU/mL and 0.70 Log CFU/mL
2,"OC[C@H]1O[C@@](CO)(OC[C@@]2(O[C@H]3O[C@H](CO)[C@@H](O)[C@H](O)[C@H]3O)O[C@H](CO)[C@@H](O)[C@@H]2O)[C@@H](O)[C@@H]1O [1-Kestose (2.0), 1-Kestose]",2.59 Log CFU/mL and 3.60 Log CFU/mL and 2.30 Log CFU/mL and 1.95 Log CFU/mL and 2.74 Log CFU/mL
3,"OC[C@@H](O)[C@@H](O[C@H]1O[C@H](CO)[C@@H](O)[C@H](O)[C@H]1O)[C@H](O)[C@@H](O)CO [Maltitol (2.0), Maltitol]",0.35 Log CFU/mL and −0.08 Log CFU/mL
4,"OC[C@@H](O)[C@@H](O[C@@H]1O[C@H](CO)[C@H](O)[C@H](O)[C@H]1O)[C@H](O)[C@@H](O)CO [D-Lactitol (2.0), D-Lactitol]",0.77 Log CFU/mL and 0.66 Log CFU/mL
5,"OC[C@H]1O[C@@H](O[C@@H]2[C@@H](CO)OC(O)(CO)[C@H]2O)[C@H](O)[C@@H](O)[C@H]1O (mixture of isomers) [Lactulose (2.0), Lactulose]",2.38 Log CFU/mL and 2.80 Log CFU/mL and 2.58 Log CFU/mL and 2.60 Log CFU/mL and 2.69 Log CFU/mL
6,"O=C(CO)[C@@H](O)[C@H](O)[C@H](O)CO[C@H]1O[C@H](CO)[C@@H](O)[C@H](O)[C@H]1O [Palatinose ™ (2.0), 6-O-α-D-glucopyranosyl-D-fructose]",2.10 Log CFU/mL and 2.30 Log CFU/mL and 2.77 Log CFU/mL and 3.24 Log CFU/mL and 1.90 Log CFU/mL

# Same assay, conditions: co-culture with S. anginosus in API 50 CHL media with prebiotic (% w/v in label), anaerobic 37° C., 48 hours; one value per replicate
row,SMILES,L. crispatus Recovered on MRS
1,"CO[C@H]1O[C@H](CO)[C@@H](O)[C@H](O)[C@H]1O [α-Methyl-D-Glucoside (2.0), α-Methyl-D-Glucoside]",7.20 Log CFU/mL and 6.52 Log CFU/mL and 6.78 Log CFU/mL
2,"OC[C@H]1O[C@@](CO)(OC[C@@]2(O[C@H]3O[C@H](CO)[C@@H](O)[C@H](O)[C@H]3O)O[C@H](CO)[C@@H](O)[C@@H]2O)[C@@H](O)[C@@H]1O [1-Kestose (2.0), 1-Kestose]",7.95 Log CFU/mL and 8.90 Log CFU/mL and 8.00 Log CFU/mL and 7.65 Log CFU/mL and 8.16 Log CFU/mL
3,"OC[C@@H](O)[C@@H](O[C@H]1O[C@H](CO)[C@@H](O)[C@H](O)[C@H]1O)[C@H](O)[C@@H](O)CO [Maltitol (2.0), Maltitol]",5.48 Log CFU/mL and 6.00 Log CFU/mL
4,"OC[C@@H](O)[C@@H](O[C@@H]1O[C@H](CO)[C@H](O)[C@H](O)[C@H]1O)[C@H](O)[C@@H](O)CO [D-Lactitol (2.0), D-Lactitol]",5.90 Log CFU/mL and 6.74 Log CFU/mL
5,"OC[C@H]1O[C@@H](O[C@@H]2[C@@H](CO)OC(O)(CO)[C@H]2O)[C@H](O)[C@@H](O)[C@H]1O (mixture of isomers) [Lactulose (2.0), Lactulose]",7.74 Log CFU/mL and 8.10 Log CFU/mL and 8.28 Log CFU/mL and 8.30 Log CFU/mL and 8.11 Log CFU/mL
6,"O=C(CO)[C@@H](O)[C@H](O)[C@H](O)CO[C@H]1O[C@H](CO)[C@@H](O)[C@H](O)[C@H]1O [Palatinose ™ (2.0), 6-O-α-D-glucopyranosyl-D-fructose]",7.93 Log CFU/mL and 8.00 Log CFU/mL and 8.19 Log CFU/mL and 8.37 Log CFU/mL and 7.98 Log CFU/mL

# Tested on: Streptococcus anginosus KC18-1131-3B
# Test: Competition (co-culture) assay: recovery of S. anginosus after exposure to prebiotics
# Assay type: cell-based
# Settings: change vs start, background growth in media without prebiotic subtracted; co-culture, 48 hours; one value per replicate
# Experimental: as §1
SMILES,S. anginosus Δ on MRS,S. anginosus Δ on TSA
"CO[C@H]1O[C@H](CO)[C@@H](O)[C@H](O)[C@H]1O [α-Methyl-D-Glucoside (2.0), α-Methyl-D-Glucoside]",−0.33 Log CFU/mL and 0.45 Log CFU/mL and 0.55 Log CFU/mL,0.34 Log CFU/mL and 0.62 Log CFU/mL and 0.41 Log CFU/mL
"OC[C@H]1O[C@@](CO)(OC[C@@]2(O[C@H]3O[C@H](CO)[C@@H](O)[C@H](O)[C@H]3O)O[C@H](CO)[C@@H](O)[C@@H]2O)[C@@H](O)[C@@H]1O [1-Kestose (2.0), 1-Kestose]",−6.61 Log CFU/mL and −6.08 Log CFU/mL and −5.03 Log CFU/mL and −3.64 Log CFU/mL and −3.63 Log CFU/mL,−3.74 Log CFU/mL and −6.45 Log CFU/mL and −4.15 Log CFU/mL and −4.00 Log CFU/mL (2×)
"OC[C@@H](O)[C@@H](O[C@H]1O[C@H](CO)[C@@H](O)[C@H](O)[C@H]1O)[C@H](O)[C@@H](O)CO [Maltitol (2.0), Maltitol]",−0.12 Log CFU/mL and −0.37 Log CFU/mL,0.41 Log CFU/mL and 0.47 Log CFU/mL
"OC[C@@H](O)[C@@H](O[C@@H]1O[C@H](CO)[C@H](O)[C@H](O)[C@H]1O)[C@H](O)[C@@H](O)CO [D-Lactitol (2.0), D-Lactitol]",0.75 Log CFU/mL and 0.69 Log CFU/mL,0.58 Log CFU/mL and 0.52 Log CFU/mL
"OC[C@H]1O[C@@H](O[C@@H]2[C@@H](CO)OC(O)(CO)[C@H]2O)[C@H](O)[C@@H](O)[C@H]1O (mixture of isomers) [Lactulose (2.0), Lactulose]",−6.73 Log CFU/mL and −2.23 Log CFU/mL and −2.53 Log CFU/mL and −6.61 Log CFU/mL and −6.08 Log CFU/mL,−3.85 Log CFU/mL and −2.17 Log CFU/mL and −3.70 Log CFU/mL and −3.74 Log CFU/mL and −3.67 Log CFU/mL
"O=C(CO)[C@@H](O)[C@H](O)[C@H](O)CO[C@H]1O[C@H](CO)[C@@H](O)[C@H](O)[C@H]1O [Palatinose ™ (2.0), 6-O-α-D-glucopyranosyl-D-fructose]",−1.83 Log CFU/mL and −2.08 Log CFU/mL and −2.03 Log CFU/mL and −1.82 Log CFU/mL and −1.69 Log CFU/mL,−1.48 Log CFU/mL and −2.41 Log CFU/mL and −2.00 Log CFU/mL and −2.42 Log CFU/mL and 2.39 Log CFU/mL

# Same assay, conditions: co-culture with L. crispatus in API 50 CHL media with prebiotic (% w/v in label), anaerobic 37° C., 48 hours; one value per replicate
SMILES,S. anginosus Recovered on MRS,S. anginosus Recovered on TSA
"CO[C@H]1O[C@H](CO)[C@@H](O)[C@H](O)[C@H]1O [α-Methyl-D-Glucoside (2.0), α-Methyl-D-Glucoside]",5.60 Log CFU/mL and 7.15 Log CFU/mL and 7.40 Log CFU/mL,6.04 Log CFU/mL and 7.47 Log CFU/mL and 7.54 Log CFU/mL
"OC[C@H]1O[C@@](CO)(OC[C@@]2(O[C@H]3O[C@H](CO)[C@@H](O)[C@H](O)[C@H]3O)O[C@H](CO)[C@@H](O)[C@@H]2O)[C@@H](O)[C@@H]1O [1-Kestose (2.0), 1-Kestose]",0.00 Log CFU/mL (2×) and 1.70 Log CFU/mL and 2.70 Log CFU/mL and 2.30 Log CFU/mL,2.74 Log CFU/mL and 0.00 Log CFU/mL and 2.54 Log CFU/mL and 2.40 Log CFU/mL and 1.70 Log CFU/mL
"OC[C@@H](O)[C@@H](O[C@H]1O[C@H](CO)[C@@H](O)[C@H](O)[C@H]1O)[C@H](O)[C@@H](O)CO [Maltitol (2.0), Maltitol]",6.58 Log CFU/mL and 6.48 Log CFU/mL,7.26 Log CFU/mL and 7.60 Log CFU/mL
"OC[C@@H](O)[C@@H](O[C@@H]1O[C@H](CO)[C@H](O)[C@H](O)[C@H]1O)[C@H](O)[C@@H](O)CO [D-Lactitol (2.0), D-Lactitol]",7.45 Log CFU/mL and 7.54 Log CFU/mL,7.43 Log CFU/mL and 7.65 Log CFU/mL
"OC[C@H]1O[C@@H](O[C@@H]2[C@@H](CO)OC(O)(CO)[C@H]2O)[C@H](O)[C@@H](O)[C@H]1O (mixture of isomers) [Lactulose (2.0), Lactulose]",0.00 Log CFU/mL (3×) and 4.11 Log CFU/mL and 3.40 Log CFU/mL,2.85 Log CFU/mL and 4.23 Log CFU/mL and 2.00 Log CFU/mL and 2.74 Log CFU/mL and 2.78 Log CFU/mL
"O=C(CO)[C@@H](O)[C@H](O)[C@H](O)CO[C@H]1O[C@H](CO)[C@@H](O)[C@H](O)[C@H]1O [Palatinose ™ (2.0), 6-O-α-D-glucopyranosyl-D-fructose]",4.78 Log CFU/mL and 4.00 Log CFU/mL and 4.70 Log CFU/mL and 4.88 Log CFU/mL and 5.16 Log CFU/mL,5.00 Log CFU/mL and 4.04 Log CFU/mL and 4.70 Log CFU/mL and 4.53 Log CFU/mL and 4.74 Log CFU/mL

# Tested on: Lactobacillus crispatus KC18-1173-1 to Streptococcus anginosus KC18-1131-3B
# Test: Competition (co-culture) assay: ratio of L. crispatus to S. anginosus recovered
# Assay type: cell-based
# Settings: average CFU/mL L. crispatus on MRS divided by average CFU/mL S. anginosus on TSA, 48 hours
# Experimental: as §1
row,SMILES,Ratio (L. crispatus/S. anginosus)
1,"CO[C@H]1O[C@H](CO)[C@@H](O)[C@H](O)[C@H]1O [α-Methyl-D-Glucoside (2.0), α-Methyl-D-Glucoside]",0
2,"OC[C@H]1O[C@@](CO)(OC[C@@]2(O[C@H]3O[C@H](CO)[C@@H](O)[C@H](O)[C@H]3O)O[C@H](CO)[C@@H](O)[C@@H]2O)[C@@H](O)[C@@H]1O [1-Kestose (2.0), 1-Kestose]","976,001"
3,"OC[C@@H](O)[C@@H](O[C@H]1O[C@H](CO)[C@@H](O)[C@H](O)[C@H]1O)[C@H](O)[C@@H](O)CO [Maltitol (2.0), Maltitol]",0
4,"OC[C@@H](O)[C@@H](O[C@@H]1O[C@H](CO)[C@H](O)[C@H](O)[C@H]1O)[C@H](O)[C@@H](O)CO [D-Lactitol (2.0), D-Lactitol]",0
5,"OC[C@H]1O[C@@H](O[C@@H]2[C@@H](CO)OC(O)(CO)[C@H]2O)[C@H](O)[C@@H](O)[C@H]1O (mixture of isomers) [Lactulose (2.0), Lactulose]","37,556"
6,"O=C(CO)[C@@H](O)[C@H](O)[C@H](O)CO[C@H]1O[C@H](CO)[C@@H](O)[C@H](O)[C@H]1O [Palatinose ™ (2.0), 6-O-α-D-glucopyranosyl-D-fructose]","2,681"
